Results from a melting point compilation (Tetko et al.).

melting point | Compound
142 to 144 °C | COc1ccc(Br)c(C(N)=S)c1
138 to 140 °C | Cn1cnc(-c2ccc(N)cc2)n1
154 to 156 °C | O=C(O)CSc1nnc(-c2ccc(Cl)cc2)o1
143 to 145 °C | COC(=O)c1c(NC(=O)CCl)sc(C)c1C
107 to 109 °C | CC(C)N(CCC#N)S(C)(=O)=O
91 to 93 °C | ClCc1nnc(-c2ccccc2Cl)o1
152 to 154 °C | CSc1ccc(C(=O)CCC(=O)O)cc1
146 to 148 °C | CC(C)S(=O)(=O)c1ccc(CC(=O)O)cc1
251 to 253 °C | COc1ccc2c(=O)[nH]cnc2c1
172 to 174 °C | CN(C(=O)c1ccc(N)cc1Cl)C1CCCCC1
176 to 178 °C | CN(C)S(=O)(=O)c1ccc(NCCO)c(C(=O)O)c1
99 to 101 °C | O=C1NCCCC1C(F)(F)F (stereo unspecified)
179 to 181 °C | NNc1ccc(S(=O)(=O)N2CCOCC2)cn1
91 to 93 °C | C1CCc2nnc(C3CCCN3)n2CC1 (stereo unspecified)
131 to 133 °C | COCCn1cnc2c1c(=O)n(CC(=O)O)c(=O)n2Cc1ccccc1
218 to 220 °C | COc1ccc(C(=O)O)cc1S(=O)(=O)NC(C)(C)C
164 to 166 °C | CCN(CC)S(=O)(=O)c1cccc(C(=O)O)c1
74 to 76 °C | Nc1ccc(Br)c(I)c1
228 to 230 °C | Nc1nc2cc(Cl)cc(Br)c2o1
278 to 280 °C | O=c1ccc2cc(S(=O)(=O)Cl)ccc2[nH]1
109 to 111 °C | O=C(O)CC(Br)C(=O)c1ccc(Br)cc1 (stereo unspecified)
99 to 101 °C | NNC(=O)CCc1ccccc1
246 to 248 °C | COc1cc(C=C2CCc3c2nc2ccccc2c3C(=O)O)cc(OC)c1OC
220 to 222 °C | O=C(O)c1cc2ccc(F)cc2s1

melting point | Compound
121 to 123 °C | Clc1nccc(N2CCCC2)n1
173 to 175 °C | C#CCNC(=O)Nc1ccccc1Cl
152 to 154 °C | CCn1c(N)nc2ccccc21
87 to 89 °C | Nc1cc(F)ccc1OCC1CCCO1 (stereo unspecified)
151 to 153 °C | O=C(O)c1ccc(S(=O)(=O)Nc2cccc(Cl)c2F)o1
144 to 146 °C | Cn1cnnc1Sc1ccc(Br)cc1N
268 to 270 °C | CC1CN(S(=O)(=O)c2ccc(C(=O)O)cc2)CC(C)O1 (stereo unspecified)
221 to 223 °C | Nc1ccnc2nc(C(F)(F)F)nn12
185 to 187 °C | Cn1cccc(C(=O)O)c1=O
301 to 303 °C | CC(C)(C)C1CCc2c(sc3nc(S)nc(S)c23)C1 (stereo unspecified)
168 to 170 °C | CCOc1ccc(S(N)(=O)=O)c2ccccc12
225 to 227 °C | Clc1cc2nc(-c3ccccc3)nn2cn1
108 to 110 °C | O=C(CCl)NC(c1ccccc1)c1nccs1 (stereo unspecified)
213 to 215 °C | Nc1cc2c(c(C(=O)O)c1)OCCO2
94 to 96 °C | OC(C1CCCCN1)C(F)(F)F (stereo unspecified)
40 to 42 °C | NC(CCc1ccccc1)=NO
73 to 75 °C | CN(CCO)C1(CN)CCCCC1
116 to 118 °C | NS(=O)(=O)c1ccccc1-c1ccccc1
52 to 54 °C | CC(C)(C)C(=O)N1CCNCC1
59 to 61 °C | COc1ccc2[nH]c3c(c2c1)CC(C)CC3 (stereo unspecified)
66 to 68 °C | Cc1cc(F)c([N+](=O)[O-])cc1S(=O)(=O)Cl
272 to 274 °C | COc1ccc(-c2ccc(C#N)c(=O)[nH]2)cc1OC
72 to 74 °C | c1ccc(C2NCCn3cccc32)cc1 (stereo unspecified)
48 to 50 °C | c1cnc2c(NC3CCC3)cccc2c1

melting point | Compound
227 to 229 °C | NNC(=O)c1cc(N)cc([N+](=O)[O-])c1
179 to 181 °C | Cc1n[nH]c(-c2ccc(N)cc2)n1
61 to 63 °C | Cc1ccc(Cl)c2ccc(Cl)nc12
64 to 66 °C | O=C(Nc1ccccc1)OCCBr
169 to 171 °C | Nc1sc2c(c1C(=O)O)CCSC2
131 to 133 °C | CC(C)(C)OC(=O)N1CCC(C(=O)O)(C(=O)O)C1
147 to 149 °C | Cc1csc(-c2no[nH]c2=N)n1
99 to 102 °C | COc1cccc2c1C(=O)CC2
65 to 67 °C | COc1cc(S(=O)(=O)Cl)ccc1Br
164 to 166 °C | O=C(O)C1CCC(=O)N(Cc2ccccc2)C1c1ccccc1 (stereo unspecified)
161 to 163 °C | CC(=O)Oc1ccc(C(=O)Nc2ccccc2)cc1
150 to 152 °C | Fc1cc2nc(CCl)[nH]c2cc1F
45 to 47 °C | N#CCCSc1ccccc1N
144 to 146 °C | CC(=O)N1CCc2ccc(S(=O)(=O)Cl)cc21
51 to 55 °C | O=C1CC(c2ccccc2)C(=O)O1 (stereo unspecified)
89 to 91 °C | CC1(O)CN(C(=O)OC(C)(C)C)C1
98 to 100 °C | Cc1nc2ccccn2c1P(c1ccccc1)c1ccccc1
93 to 95 °C | O=S(=O)(c1ccc(F)cc1F)N1CCNCC1
78 to 80 °C | CC(C)(C(=O)O)c1cccs1
107 to 109 °C | CN(C)c1ccc(N)c2cnccc12
131 to 133 °C | CC1CCCC(NC(=O)NC(=O)CCl)C1C (stereo unspecified)
92 to 94 °C | CCS(=O)(=O)c1cccc(S(=O)(=O)Cl)c1
238 to 240 °C | NNC(=O)c1cc(-c2ccc(Cl)cc2)nc2ccccc12
189 to 191 °C | Cc1cc(C(=O)O)cc(C)c1OC(F)F

melting point | Compound
85 to 89 °C | CC(C)COc1cccc(C(=O)O)c1
269 to 271 °C | NC(=O)c1cncc(C(=O)O)c1
171 to 173 °C | CC(CC(=O)O)c1ccncc1 (stereo unspecified)
79 to 81 °C | CN(C)c1ccnc(Cl)n1
142 to 144 °C | COc1cc(S(N)(=O)=O)ccc1N
64 to 68 °C | Cc1cc(C(=O)CCl)c(C)n1Cc1ccccc1
236 to 238 °C | CCn1ncc2c(C(=O)O)cc(-c3ccccc3)nc21
178 to 183 °C | O=C(O)C1CCN(C(=O)Nc2ccccc2)CC1
172 to 174 °C | Nc1ccccc1CS(=O)(=O)c1ccccc1
205 to 207 °C | Cc1nc(S)sc1CC(=O)O
128 to 131 °C | O=C(O)CC(Br)C(=O)c1ccc(F)cc1 (stereo unspecified)
195 to 197 °C | NNc1ccc(S(=O)(=O)NC2CC2)cn1
235 to 239 °C | Cc1cccc(C(=O)NC(CCS(C)(=O)=O)C(=O)O)c1 (stereo unspecified)
237 to 239 °C | NNc1ncnc2cc(-c3ccc(F)cc3)sc12
118 to 120 °C | CC(O)(c1ccc(O)cc1)C(F)(F)F (stereo unspecified)
117 to 119 °C | CC(C)Oc1ccc(C(=O)NN)cc1
116 to 118 °C | Cc1cc(CC(=O)O)n[nH]1
96 to 98 °C | CNS(=O)(=O)c1cccc(C(C)=O)c1
139 to 141 °C | N#Cc1ccc(Nc2ccc(Cl)cc2)cc1
133 to 135 °C | CCOC(=O)c1sc2cccc(F)c2c1CBr
140 to 142 °C | O=C(Nc1cccnc1)OCC(F)(F)F
293 to 295 °C | N#CCC(=O)c1c[nH]c2cc(Cl)ccc12
59 to 61 °C | Clc1cc(Cl)cc(OCC2CCNCC2)c1
180 to 182 °C | C/C(=N\Nc1ccc(Cl)c(C(=O)O)c1)c1ccc(Br)cc1

melting point | Compound
145 to 147 °C | NC(=O)c1cccnc1N1CCNCC1
178 to 180 °C | O=c1[nH]c(-c2ccccn2)nc2c1CCC2
209 to 211 °C | Cc1ccc2c(CC(=O)O)cc(=O)oc2c1
213 to 215 °C | O=C(O)c1cc(F)c(Br)c(S(=O)(=O)Cl)c1
59 to 61 °C | CCN(CC)S(=O)(=O)CC(=O)O
56 to 58 °C | CC(C)(C)OC(=O)C1CCN(C(=O)OCc2ccccc2)CC1
96 to 98 °C | Oc1ccc(-c2noc(C3CCCO3)n2)cc1 (stereo unspecified)
211 to 213 °C | O=C(O)c1ccccc1NS(=O)(=O)c1ccc(Cl)c([N+](=O)[O-])c1
89 to 91 °C | COC(=O)Nc1ccc(N)cc1
116 to 118 °C | CC(C)(C)S(=O)(=O)c1ccc(Br)cn1
76 to 78 °C | CN(C)C(=O)c1ccc(Cl)c(N)c1
176 to 178 °C | Cc1sc(NC(=O)CCl)nc1-c1ccc(Cl)cc1
152 to 154 °C | Brc1cn2ccnc2c(Br)n1
138 to 140 °C | NC(=O)c1cccc2[nH]ccc12
121 to 123 °C | NNC(=O)N1CCOCC1
116 to 118 °C | O=S(=O)(Nc1cccc(Br)c1)c1ccccc1
204 to 206 °C | CC(Nc1ccc(C(=O)O)cc1[N+](=O)[O-])c1ccccn1 (stereo unspecified)
155 to 157 °C | N#Cc1sc2ccccc2c1N
179 to 181 °C | CC(C)(C)Oc1ccc(C(N)=S)cc1
160 to 162 °C | CCS(=O)(=O)c1cccc(C(=O)O)c1
160 to 162 °C | NC(=O)c1nnn(-c2ccccc2)c1N
139 to 141 °C | COCc1cccc2sc(N)nc12
64 to 66 °C | Cc1ncc(C=O)n1-c1ccccc1
172 to 174 °C | COc1ccc(S(=O)(=O)NC(C(=O)O)C(C)C)cc1 (stereo unspecified)

melting point | Compound
193 to 197 °C | O=C(O)c1cc(-c2ccc(F)cc2)nc2ccccc12
138 to 140 °C | CC(NC(=O)c1ccc(Br)cc1)C(=O)O (stereo unspecified)
176 to 178 °C | O=C(O)c1nnn(-c2ccc(Br)cc2)c1C1CC1
136 to 138 °C | COc1ccc2c(=O)c(-c3ccccc3)c(C)oc2c1
198 to 200 °C | COc1ccc(-c2cc(C(=O)O)nn2-c2ccccc2)cc1
246 to 248 °C | CCOC(=O)c1ncn(-c2ccc(C)cc2)c1N
169 to 171 °C | Nc1ccnn1C1CCS(=O)(=O)C1 (stereo unspecified)
79 to 81 °C | N#Cc1ccc(Cl)cc1S(=O)(=O)Cl
244 to 246 °C | O=c1sc2ccccc2nc1NO
54 to 56 °C | C=CCNc1ccc(C(F)(F)F)cc1C#N
61 to 65 °C | Fc1cc(CCl)c2c(c1)COC(c1ccccc1)O2 (stereo unspecified)
214 to 216 °C | Cn1c(=O)[nH]c(=O)c2cc(S(=O)(=O)Cl)cnc21
72 to 74 °C | Cc1ccc(N)cc1S(C)(=O)=O
61 to 63 °C | Cc1ccc(CNCc2ccc(C)n2C)n1C
228 to 232 °C | Cc1ccc2c(c1C)NC(=O)C2=O
209 to 211 °C | O=c1[nH]c2ccc(I)cc2o1
114 to 117 °C | Nc1ccc(F)c(F)c1N
239 to 241 °C | O=C(O)C(CO)NS(=O)(=O)c1ccc(Br)cc1 (stereo unspecified)
196 to 198 °C | CN(C)C(=O)c1ccnc(N)c1
217 to 219 °C | CC(=O)Nc1sc(C)c(C)c1C(=O)O

Compound | melting point
Cc1nn(Cc2ccc(Cl)cc2)c(C)c1C(=O)O | 188 to 190 °C
